{"source": "patent US20250230193A1", "about": "“CYCLIC COMPOUND HAVING SELECTIVE KRAS INHIBITORY EFFECT ON HRAS AND NRAS” (CHUGAI SEIYAKU KABUSHIKI KAISHA, priority 2022, published 2025)", "key": {"[1]": {"biological_target": "GDP-bound NRAS wild-type protein (Homo sapiens, UniProt P01111)", "sequence (P01111 whole entry)": "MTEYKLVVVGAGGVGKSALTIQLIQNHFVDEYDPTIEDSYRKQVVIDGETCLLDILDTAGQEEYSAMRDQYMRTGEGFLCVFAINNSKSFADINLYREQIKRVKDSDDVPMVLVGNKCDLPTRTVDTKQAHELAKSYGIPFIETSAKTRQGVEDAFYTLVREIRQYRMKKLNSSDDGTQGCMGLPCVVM", "assay": "Binding to NRAS by surface plasmon resonance (SPR), Single Cycle Kinetics", "conditions": "SPR; for NRAS/KRAS (ratio of KD value with respect to NRAS to KD value with respect to KRAS): GDP-bound NRAS wild-type vs GDP-bound KRAS wild-type"}, "[2]": {"biological_target": "GDP-bound HRAS wild-type protein (Homo sapiens, UniProt P01112)", "sequence (P01112 whole entry)": "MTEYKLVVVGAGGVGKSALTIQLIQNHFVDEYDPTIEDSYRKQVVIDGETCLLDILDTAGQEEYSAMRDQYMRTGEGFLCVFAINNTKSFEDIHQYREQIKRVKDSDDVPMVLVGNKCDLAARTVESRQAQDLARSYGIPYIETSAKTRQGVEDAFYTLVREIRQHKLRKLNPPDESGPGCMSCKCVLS", "assay": "Binding to HRAS by surface plasmon resonance (SPR), Single Cycle Kinetics", "conditions": "SPR; for HRAS/KRAS (ratio of KD value with respect to HRAS to KD value with respect to KRAS): GDP-bound HRAS wild-type vs GDP-bound KRAS wild-type"}}, "note": "*1 amine or outer side, *2 acyl side, *3 side chain or, on linkers, in order; H or OH if unused. Where a SMILES comes first, the peptide text is derived from it. Bridges are numbered along the chain shown (N, C = ends). [ ]: non-standard residue; d: D form. The star is where a group is joined. hPhe(3-Cl-4-CF3) = N[C@@H](CCc1ccc(C(F)(F)F)c(Cl)c1)C(=O)O; NPrPhe(4-CF3) = CCCN[C@@H](Cc1ccc(C(F)(F)F)cc1)C(=O)O; X27 = Cc1ccc(C[C@@H](C(=O)[*:2])N(CC2CCCCC2)[*:1])cc1; NMeGly(cPent) = CN[C@H](C(=O)O)C1CCCC1; Pro(4,4-F2) = O=C(O)[C@@H]1CC(F)(F)CN1; NMeD = CN[C@@H](CC(=O)O)C(=O)O; NMeL = CN[C@@H](CC(C)C)C(=O)O; Morpholide = C1CN(*)CCO1; Ac5c = NC1(C(=O)O)CCCC1; Aze = O=C(O)[C@@H]1CCN1; Ac4c = NC1(C(=O)O)CCC1; Sar = CNCC(=O)O"}
{"molecule": "CC[C@H](C)[C@@H]1NC(=O)[C@H](CC(C)C)N(C)C(=O)C[C@@H](C(=O)N2CCOCC2)N(C)C(=O)[C@H](C2CCCC2)N(C)C(=O)C2(CCCC2)NC(=O)[C@@H]2CCCN2C(=O)[C@H](CCc2ccc(C(F)(F)F)c(Cl)c2)NC(=O)CN(C)C(=O)[C@H](Cc2ccc(C)cc2)N(CC2CCCCC2)C(=O)CN(C)C(=O)CN(C)C1=O", "note": "[PP0097] ([NMeL]I[Sar][Sar][X27][Sar][hPhe(3-Cl-4-CF3)]P[Ac5c][NMeGly(cPent)][NMeD]-Morpholide; lactam N-11)", "values": [{"measurement": "NRAS/KRAS (ratio of KD for GDP-bound NRAS wild-type to KD for KRAS)", "setting": "[1]; KD ratio NRAS/KRAS", "value": "C (A compound having a KD ratio of 0.1 or more and less than 3 is denoted as C)"}, {"measurement": "HRAS/KRAS (ratio of KD for GDP-bound HRAS wild-type to KD for KRAS)", "setting": "[2]; KD ratio HRAS/KRAS", "value": "C (A compound having a KD ratio of 0.1 or more and less than 3 is denoted as C)"}]}
{"molecule": "CCOC[C@H]1C(=O)N[C@@H]([C@@H](C)CC)C(=O)N2CCC[C@H]2C(=O)N(C)[C@H]2C/C=C\\CCN(C2=O)[C@@H](CC2CCC(F)(F)CC2)C(=O)N(C)CC(=O)N[C@@H](CCc2ccc(C(F)(F)F)c(OC)c2)C(=O)N2C[C@H](OCC)C[C@H]2C(=O)N(C)C2(CCC2)C(=O)N(C)[C@@H](C(CC)CC)C(=O)N(C)[C@H](C(=O)N(C)C)CC(=O)N1C", "note": "[PP2355]", "values": [{"measurement": "NRAS/KRAS (ratio of KD value with respect to NRAS to KD value with respect to KRAS)", "setting": "[1]", "value": "AA (a compound having 20 or more is denoted as AA)"}, {"measurement": "HRAS/KRAS (ratio of KD value with respect to HRAS to KD value with respect to KRAS)", "setting": "[2]", "value": "A (a compound having 10 or more and less than 20 is denoted as A)"}]}
{"molecule": "CCO[C@@H]1C[C@H]2C(=O)NC3(CCCC3)C(=O)N(C)[C@@H](C3CCCC3)C(=O)N(C)[C@H](C(=O)N3CCOCC3)CC(=O)N(C)[C@@H](CC)C(=O)N[C@@H]([C@@H](C)CC)C(=O)N(C)CC(=O)N(C)[C@H]3C[C@@H](C)CCN(C3=O)[C@@H](Cc3ccc(C(F)(F)F)cc3)C(=O)N(C)CC(=O)N[C@@H](CCc3cc(F)c(C(F)(F)F)c(F)c3)C(=O)N2C1", "note": "[PP1029]", "values": [{"measurement": "NRAS/KRAS (ratio of KD value with respect to NRAS to KD value with respect to KRAS)", "setting": "[1]; KD ratio", "value": "C (A compound having a KD ratio of 0.1 or more and less than 3 is denoted as C)"}, {"measurement": "HRAS/KRAS (ratio of KD value with respect to HRAS to KD value with respect to KRAS)", "setting": "[2]; KD ratio", "value": "B (a compound having 3 or more and less than 10 is denoted as B)"}]}
{"molecule": "CCO[C@@H]1C[C@H]2C(=O)NC3(CCC3)C(=O)N(C)[C@@H](C3CCCC3)C(=O)N(C)[C@H](C(=O)N(C)C)CC(=O)N(C)[C@H]3CCCCCc4ccc(cc4)C[C@@H](C(=O)N(C)CC(=O)N[C@@H](CCc4cc(F)c(C(F)(F)F)c(F)c4)C(=O)N2C1)N1CC/C=C\\C[C@@H](C1=O)N(C)C(=O)CN(C)C(=O)[C@H]([C@@H](C)CC)NC3=O", "note": "[PP2261]", "values": [{"measurement": "NRAS/KRAS (ratio of KD value with respect to NRAS to KD value with respect to KRAS)", "setting": "[1]", "value": "A (a compound having 10 or more and less than 20 is denoted as A)"}, {"measurement": "HRAS/KRAS (ratio of KD value with respect to HRAS to KD value with respect to KRAS)", "setting": "[2]", "value": "A (a compound having 10 or more and less than 20 is denoted as A)"}]}
{"molecule": "CC[C@H](C)[C@@H]1NC(=O)[C@H](CC)N(C)C(=O)C[C@@H](C(=O)N(C)C)N(C)C(=O)[C@H](C2CCCC2)N(C)C(=O)C2(CCC2)NC(=O)[C@@H]2CCCCN2C(=O)[C@H](CCc2cc(F)c(C(F)(F)F)c(F)c2)NC(=O)CN(C)C(=O)[C@H](Cc2ccc(C(F)(F)F)cc2)N2CC/C=C\\C[C@@H](C2=O)N(C)C(=O)CN(C)C1=O", "note": "[PP1136]", "values": [{"measurement": "NRAS/KRAS (ratio of KD value with respect to NRAS to KD value with respect to KRAS)", "setting": "[1]; KD ratio", "value": "A (a compound having 10 or more and less than 20 is denoted as A)"}, {"measurement": "HRAS/KRAS (ratio of KD value with respect to HRAS to KD value with respect to KRAS)", "setting": "[2]; KD ratio", "value": "A (a compound having 10 or more and less than 20 is denoted as A)"}]}
{"molecule": "CCCN1C(=O)CN(C)C(=O)[C@@H]2CCN2C(=O)[C@H]([C@@H](C)CC)NC(=O)[C@H](CC(C)C)N(C)C(=O)C[C@@H](C(=O)N2CCOCC2)NC(=O)[C@H](C2CCCC2)N(C)C(=O)C2(CCC2)NC(=O)[C@@H]2CCCN2C(=O)[C@H](CCc2ccc(C(F)(F)F)c(Cl)c2)NC(=O)CN(C)C(=O)[C@@H]1Cc1ccc(C(F)(F)F)cc1", "note": "[PP0338] ([NMeL]I[Aze][Sar][NPrPhe(4-CF3)][Sar][hPhe(3-Cl-4-CF3)]P[Ac4c][NMeGly(cPent)]D-Morpholide; lactam N-11)", "values": [{"measurement": "NRAS/KRAS (ratio of KD for GDP-bound NRAS wild-type to KD for KRAS)", "setting": "[1]; KD ratio NRAS/KRAS", "value": "B (a compound having 3 or more and less than 10 is denoted as B)"}, {"measurement": "HRAS/KRAS (ratio of KD for GDP-bound HRAS wild-type to KD for KRAS)", "setting": "[2]; KD ratio HRAS/KRAS", "value": "B (a compound having 3 or more and less than 10 is denoted as B)"}]}
{"molecule": "CCCN1C(=O)[C@@H]2CCN2C(=O)CN(C)C(=O)[C@H]([C@@H](C)CC)NC(=O)[C@H](CC(C)C)N(C)C(=O)C[C@@H](C(=O)N2CCOCC2)N(C)C(=O)[C@H](C2CCCC2)N(C)C(=O)C2(CCC2)NC(=O)[C@@H]2CC(F)(F)CN2C(=O)[C@H](CCc2ccc(C(F)(F)F)c(Cl)c2)NC(=O)CN(C)C(=O)[C@@H]1Cc1ccc(C(F)(F)F)cc1", "note": "[PP0409] ([NMeL]I[Sar][Aze][NPrPhe(4-CF3)][Sar][hPhe(3-Cl-4-CF3)][Pro(4,4-F2)][Ac4c][NMeGly(cPent)][NMeD]-Morpholide; lactam N-11)", "values": [{"measurement": "NRAS/KRAS (ratio of KD value with respect to GDP-bound NRAS wild-type protein to KD value with respect to KRAS)", "setting": "[1]; KD ratio NRAS/KRAS", "value": "C (A compound having a KD ratio of 0.1 or more and less than 3 is denoted as C)"}, {"measurement": "HRAS/KRAS (ratio of KD value with respect to GDP-bound HRAS wild-type protein to KD value with respect to KRAS)", "setting": "[2]; KD ratio HRAS/KRAS", "value": "C (A compound having a KD ratio of 0.1 or more and less than 3 is denoted as C)"}]}
